The subject of data set [1] is RPE cells (TGFβ-stimulated). The data set can be described thus: RPE cell scratch wound migration assay. It is filed as cell-based, porcine. To be noted: 16 h.
The test system of data set [2] is HEK293 cells. In words: LDH release (CytoTox-ONE), HEK293 cells. Format: cell-based. The conditions noted are these: overnight, increasing concentrations. The method, then: (§1) HEK293 and MDCK cells were seeded in triplicate wells and incubated overnight with the indicated concentration of TAT-P5 or TAT-F1. The next day 30 μL of medium was removed from each well and incubated with 30μL of CytoTox-ONE (Promega) reagent for 40 min. Fluorescence was then measured to assess LDH release. To assess Caspase 3/7 activity cells were assayed using Apo-ONE Homogenous Caspase-3/7 assay (Promega) according to manufactures instructions.
(§2) We next tested whether the inhibitors are toxic to cultured cells. MDCK and HEK293 cells were incubated with increasing concentrations of either TAT-F1 or TAT-P5 overnight before analysis of LDH release as a measure of necrosis or Caspase 3/7 activity to assess induction of apoptosis (Figure S2).
(§3) MDCK (A) and HEK 293 (B) cells were incubated overnight with TAT-F1 or TAT-P5 at the concentrations indicated. Cell toxicity was then assessed by measuring caspase 3/7 activity in cell extracts and release of LDH into the medium. No significant cell toxicity was observed.
(§4) (1 picture or pasted object on this page, not shown here)
In general terms: LDH leaks from cells whose membrane has failed.

Data set [3] concerns MDCK cells. The data set can be described thus: Caspase 3/7 activity (Apo-ONE), MDCK cells. Format: cell-based. The conditions noted are these: overnight, increasing concentrations. The method, then: as §1, §2, §3, §4
Data set [4] deals with HEK293 cells. In words: Caspase 3/7 activity (Apo-ONE), HEK293 cells. Format: cell-based. To be noted: overnight, increasing concentrations. The method, then: as §1, §2, §3, §4
The subject of data set [5] is MDCK cells. In words: LDH release (CytoTox-ONE), MDCK cells. Format: cell-based. To be noted: overnight, increasing concentrations. The method, then:
as §1, §2, §3, §4

Where no end group is shown, it is not given here.

For “GRKKRRQRRRPWQDYIAEVPRSDYDLRPTGQD [TAT-scr, scrambled version of TAT-P5, negative control peptide]”, the “RPE cell migration (scratch closure), in words” value in data set [1] is recorded as “had no effect”.

As to “GRKKRRQRRRPWQGQEDYDRLRPASYPDTDVI [TAT-P5]”, in the data set with HEK293 cells [2], the “cytotoxicity, LDH release (necrosis), HEK293” value is recorded as “Neither assay revealed an increase in cytotoxicity”. In addition, the “cytotoxicity, Caspase 3/7 activity (apoptosis), MDCK” value with MDCK cells [3] is listed as “Neither assay revealed an increase in cytotoxicity”. Besides, in the data set with HEK293 cells [4], the “cytotoxicity, Caspase 3/7 activity (apoptosis), HEK293” value is “Neither assay revealed an increase in cytotoxicity”. Moreover, the “cytotoxicity, LDH release (necrosis), MDCK” value in the data set with MDCK cells [5] was “Neither assay revealed an increase in cytotoxicity”.

(Values after PMC9179336, “Therapeutic Validation of GEF-H1 Using a De Novo Designed Inhibitor in Models of Retinal Disease” (Cells, 2022).)
